According to patent US20240116951A1, “HETEROCYCLIC COMPOUNDS AND USES THEREOF” (Kumquat Biosciences Inc., priority 2022, published 2024):

What was measured:
Type in all cases: binding
KRAS G12S = target: T1, KRAS G12S (Homo sapiens, UniProt P01116, G12S); assay: HTRF assay of K-Ras G12S interaction with SOS1 (PPI-HTRF); settings: 5 nM KRAS G12S, read-out: PPI-HTRF-5 nM KRAS G12S
T1 construct: made in house; host or cells: E. coli, e.g. BL21 (DE3)
Procedure, shortened: (§1)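 GST-KRas + antiGST-Eu(K); His-hSOS1 + anti-6His-XL665. Buffer ~5 mM HEPES pH 7.4/150 mM NaCl/1 mM DTT/0.05% BSA/0.0025% Igepal. Cpd in DMSO, duplicates 10–0.01 μM; ≥10 min incubation, HTRF 620/665 nm, IC50 from ratio.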

KRAS G12D = target: T2, KRAS G12D (Homo sapiens, UniProt P01116, G12D); assay: HTRF assay of K-Ras G12D interaction with SOS1 (PPI-HTRF); settings: HTRF, 5 nM KRAS G12D; read-out: PPI-HTRF-5 nM KRAS G12D
T2 construct: made in house; host or cells: E. coli, e.g. BL21 (DE3)
Procedure, shortened: as §1

KRAS WT = target: T3, KRAS WT (Homo sapiens, UniProt P01116); assay: HTRF assay of wildtype K-Ras interaction with SOS1 (PPI-HTRF); settings: HTRF, 5 nM KRAS WT; read-out: PPI-HTRF-5 nM KRAS WT
T3 construct: made in house; host or cells: E. coli, e.g. BL21 (DE3)
Procedure, shortened: as §1

Measured: IC50

T3 sequence (P01116 1-188 isoform P01116-2): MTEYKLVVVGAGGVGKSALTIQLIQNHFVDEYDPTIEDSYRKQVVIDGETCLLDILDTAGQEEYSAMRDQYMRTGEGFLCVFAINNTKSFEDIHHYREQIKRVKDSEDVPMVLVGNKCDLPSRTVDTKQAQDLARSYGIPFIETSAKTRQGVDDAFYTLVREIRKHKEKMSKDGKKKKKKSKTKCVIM
T2 sequence (P01116 1-188 isoform P01116-2 G12D): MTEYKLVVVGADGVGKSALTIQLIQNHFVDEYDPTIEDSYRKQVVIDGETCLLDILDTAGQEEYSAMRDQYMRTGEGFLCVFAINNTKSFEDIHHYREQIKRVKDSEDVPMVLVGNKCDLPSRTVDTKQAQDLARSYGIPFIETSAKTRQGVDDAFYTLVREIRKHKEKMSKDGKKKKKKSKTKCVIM
T1 sequence (P01116 1-188 isoform P01116-2 G12S): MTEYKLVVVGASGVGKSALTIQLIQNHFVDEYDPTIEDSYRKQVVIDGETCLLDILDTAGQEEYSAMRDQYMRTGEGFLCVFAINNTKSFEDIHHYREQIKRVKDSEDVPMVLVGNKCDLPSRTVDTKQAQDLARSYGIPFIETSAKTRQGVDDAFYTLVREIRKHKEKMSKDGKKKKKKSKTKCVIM

Cc1nc(Cl)n(C(=O)N2CCC23CCN(c2nc(OC[C@@]45CCCN4C[C@H](F)C5)nc4c(F)c(-c5ccc(F)c6sc(N)c(C#N)c56)c(Cl)cc24)C3)n1 (stereo partly drawn) [Compound 311, 2-amino-4-(6-chloro-4-(1-(5-chloro-3-methyl-1H-1,2,4-triazole-1-carbonyl)-1,6-diazaspiro[3.4]octan-6-yl)-8-fluoro-2-(((2R,7aS)-2-fluorotetrahydro-1H-pyrrolizin-7a(5H)-yl)methoxy)quinazolin-7-yl)-7-fluorobenzo[b]thiophene-3-carbonitrile]
< 5 µM: all assays above

N#Cc1c(N)sc2c(F)ccc(-c3c(Cl)cc4c(N5CCC6(CCN6C(=O)ON6C(=O)CCC6=O)C5)nc(OC[C@@]56CCCN5C[C@H](F)C6)nc4c3F)c12 (stereo partly drawn) [Compound 243, 2,5-dioxopyrrolidin-1-yl 6-(7-(2-amino-3-cyano-7-fluorobenzo[b]thiophen-4-yl)-6-chloro-8-fluoro-2-(((2R,7aS)-2-fluorotetrahydro-1H-pyrrolizin-7a(5H)-yl)methoxy)quinazolin-4-yl)-1,6-diazaspiro[3.4]octane-1-carboxylate]
< 5 µM: all assays above

Cc1nc(C)n(C(=O)N2CC[C@]23CCN(c2nc(OC[C@@]45CCCN4C[C@H](F)C5)nc4c(F)c(-c5ccc(F)c6sc(N)c(C#N)c56)c(Cl)cc24)C3)n1 [Compound 306, 2-amino-4-(6-chloro-4-((S)-1-(3,5-dimethyl-1H-1,2,4-triazole-1-carbonyl)-1,6-diazaspiro[3.4]octan-6-yl)-8-fluoro-2-(((2R,7aS)-2-fluorotetrahydro-1H-pyrrolizin-7a(5H)-yl)methoxy)quinazolin-7-yl)-7-fluorobenzo[b]thiophene-3-carbonitrile]
< 5 µM: all assays above

N#Cc1c(N)sc2c(F)ccc(-c3c(Cl)cc4c(N5CCC6(CCN6C(=O)n6cc(C(F)(F)F)nn6)C5)nc(OC[C@@]56CCCN5C[C@H](F)C6)nc4c3F)c12 (stereo partly drawn) [Compound 318, 2-amino-4-(6-chloro-8-fluoro-2-(((2R,7aS)-2-fluorotetrahydro-1H-pyrrolizin-7a(5H)-yl)methoxy)-4-(1-(4-(trifluoromethyl)-1H-1,2,3-triazole-1-carbonyl)-1,6-diazaspiro[3.4]octan-6-yl)quinazolin-7-yl)-7-fluorobenzo[b]thiophene-3-carbonitrile]
< 5 µM: all assays above

N#Cc1c(N)sc2c(F)ccc(-c3c(Cl)cc4c(N5CCCC6(CCCN6C(=O)n6cncn6)C5)nc(OC[C@@]56CCCN5C[C@H](F)C6)nc4c3F)c12 (stereo partly drawn) [Compound 208, 4-(4-(1-(1H-1,2,4-triazole-1-carbonyl)-1,7-diazaspiro[4.5]decan-7-yl)-6-chloro-8-fluoro-2-(((2R,7aS)-2-fluorotetrahydro-1H-pyrrolizin-7a(5H)-yl)methoxy)quinazolin-7-yl)-2-amino-7-fluorobenzo[b]thiophene-3-carbonitrile]
< 5 µM: all assays above

N#Cc1c(N)sc2c(F)ccc(-c3c(Cl)cc4c(N5CCC6(CCN6C(=O)n6ccnc6C#N)C5)nc(OC[C@@]56CCCN5C[C@H](F)C6)nc4c3F)c12 (stereo partly drawn) [Compound 287, 1-(6-(7-(2-amino-3-cyano-7-fluorobenzo[b]thiophen-4-yl)-6-chloro-8-fluoro-2-(((2R,7aS)-2-fluorotetrahydro-1H-pyrrolizin-7a(5H)-yl)methoxy)quinazolin-4-yl)-1,6-diazaspiro[3.4]octane-1-carbonyl)-1H-imidazole-2-carbonitrile]
< 5 µM: all assays above

CN(C)CC1(COc2nc(N3CCC4(CCN4C(=O)n4cncn4)C3)c3cc(Cl)c(-c4ccc(F)c5sc(N)c(C#N)c45)c(F)c3n2)CC1 (stereo not drawn) [Compound 315, 4-(4-(1-(1H-1,2,4-triazole-1-carbonyl)-1,6-diazaspiro[3.4]octan-6-yl)-6-chloro-2-((1-((dimethylamino)methyl)cyclopropyl)methoxy)-8-fluoroquinazolin-7-yl)-2-amino-7-fluorobenzo[b]thiophene-3-carbonitrile]
< 5 µM: all assays above

N#Cc1c(N)sc2c(F)ccc(-c3c(Cl)cc4c(N5CC6(CCN6C(=O)C6CC6(F)F)C5)nc(OC[C@@]56CCCN5C[C@H](F)C6)nc4c3F)c12 (stereo partly drawn) [Compound 340, 2-amino-4-(6-chloro-4-(1-(2,2-difluorocyclopropane-1-carbonyl)-1,6-diazaspiro[3.3]heptan-6-yl)-8-fluoro-2-(((2R,7aS)-2-fluorotetrahydro-1H-pyrrolizin-7a(5H)-yl)methoxy)quinazolin-7-yl)-7-fluorobenzo[b]thiophene-3-carbonitrile]
< 5 µM: all assays above

N#Cc1c(N)sc2c(F)ccc(-c3c(Cl)cc4c(N5CCCCC6(CCN6C(=O)n6cncn6)C5)nc(OC[C@@]56CCCN5C[C@H](F)C6)nc4c3F)c12 (stereo partly drawn) [Compound 350]
< 5 µM: all assays above

N#CCc1ncn(C(=O)N2CCC23CCN(c2nc(OC[C@@]45CCCN4C[C@H](F)C5)nc4c(F)c(-c5ccc(F)c6sc(N)c(C#N)c56)c(Cl)cc24)C3)n1 (stereo partly drawn) [Compound 320, 2-amino-4-(6-chloro-4-(1-(3-(cyanomethyl)-1H-1,2,4-triazole-1-carbonyl)-1,6-diazaspiro[3.4]octan-6-yl)-8-fluoro-2-(((2R,7aS)-2-fluorotetrahydro-1H-pyrrolizin-7a(5H)-yl)methoxy)quinazolin-7-yl)-7-fluorobenzo[b]thiophene-3-carbonitrile]
< 5 µM: all assays above

N#Cc1c(N)sc2c(F)ccc(-c3c(Cl)cc4c(N5CCC6(CCN6C(=O)n6cnnn6)C5)nc(OC[C@@]56CCCN5C[C@H](F)C6)nc4c3F)c12 (stereo partly drawn) [Compound 293, 4-(4-(1-(1H-tetrazole-1-carbonyl)-1,6-diazaspiro[3.4]octan-6-yl)-6-chloro-8-fluoro-2-(((2R,7aS)-2-fluorotetrahydro-1H-pyrrolizin-7a(5H)-yl)methoxy)quinazolin-7-yl)-2-amino-7-fluorobenzo[b]thiophene-3-carbonitrile]
< 5 µM: all assays above

C#Cc1c(F)ccc2cc(O)cc(-c3ncc4c(N5CCC6(CCN6)C5)nc(OC[C@@]56CCCN5C[C@H](F)C6)nc4c3F)c12 (stereo partly drawn) [Compound 268, 5-ethynyl-6-fluoro-4-(8-fluoro-2-(((2R,7aS)-2-fluorotetrahydro-1H-pyrrolizin-7a(5H)-yl)methoxy)-4-(1,6-diazaspiro[3.4]octan-6-yl)pyrido[4,3-d]pyrimidin-7-yl)naphthalen-2-ol]
< 5 µM: all assays above

N#Cc1c(NC(=O)C2CC2(F)F)sc2c(F)ccc(-c3c(F)c4nc(OC[C@@]56CCCN5C[C@H](F)C6)nc(N5CCC6(CCN6C(=O)C6CC6(F)F)C5)c4c(=O)n3C3CC3)c12 (stereo partly drawn) [Compound 343, N-(3-cyano-4-(6-cyclopropyl-4-(1-(2,2-difluorocyclopropane-1-carbonyl)-1,6-diazaspiro[3.4]octan-6-yl)-8-fluoro-2-(((2R,7aS)-2-fluorotetrahydro-1H-pyrrolizin-7a(5H)-yl)methoxy)-5-oxo-5,6-dihydropyrido[4,3-d]pyrimidin-7-yl)-7-fluorobenzo[b]thiophen-2-yl)-2,2-difluorocyclopropane-1-carboxamide]
< 5 µM: all assays above

N#Cc1c(N)sc2c(F)ccc(-c3c(Cl)cc4c(N5CCC6(CCN6C(=O)n6cncn6)C5)nc(OC[C@@]56CCCN5C[C@H](F)C6)nc4c3F)c12 (stereo partly drawn) [Compound 221, (4R)-4-(4-(1-(1H-1,2,4-triazole-1-carbonyl)-1,6-diazaspiro[3.4]octan-6-yl)-6-chloro-8-fluoro-2-(((2R,7aS)-2-fluorotetrahydro-1H-pyrrolizin-7a(5H)-yl)methoxy)quinazolin-7-yl)-2-amino-7-fluorobenzo[b]thiophene-3-carbonitrile]
< 5 µM: all assays above

C[C@H]1CN(C(=O)n2cnc(F)n2)[C@]12CCN(c1nc(OC[C@@]34CCCN3C[C@H](F)C4)nc3c(F)c(-c4ccc(F)c5sc(N)c(C#N)c45)c(Cl)cc13)C2 [Compound 255, 2-amino-4-(6-chloro-8-fluoro-4-((3S,4R)-1-(3-fluoro-1H-1,2,4-triazole-1-carbonyl)-3-methyl-1,6-diazaspiro[3.4]octan-6-yl)-2-(((2R,7aS)-2-fluorotetrahydro-1H-pyrrolizin-7a(5H)-yl)methoxy)quinazolin-7-yl)-7-fluorobenzo[b]thiophene-3-carbonitrile]
< 5 µM: all assays above
